ChEMBL document CHEMBL4229478, “Synthesis, Characterization, and Biological Evaluation of a Porphyrin-Based Photosensitizer and Its Isomer for Effective Photodynamic Therapy against Breast Cancer” (J Med Chem, 2018)
Active and inactive are the calls of the source. The rule behind the calls is not given here.

Columns and labels:
4T1 [1] = assay: Phototoxicity against mouse 4T1 cells assessed as cell viability at 0.5 uM preincubated for 4 hrs followed by 0.5 J/cm2 light irradiation and measured after 24 hrs by MTT assay relative to control; type: functional; details: 4T1, light or radiation study, read-out: Activity
4T1 [2] = assay: Phototoxicity against mouse 4T1 cells assessed as cell viability at 0.5 uM preincubated for 4 hrs followed by 2 J/cm2 light irradiation and measured after 24 hrs by MTT assay relative to control; type: functional; details: 4T1, light or radiation study, read-out: Activity
4T1 [3] = assay: Antitumor activity against mouse 4T1 cells xenografted in BALB/c mouse assessed as inhibition of tumor volume at 2 mg/kg, iv pretreated for 24 hrs followed by 50 J/cm2 light irradiation and measured at day 22 post dose relative to control; type: functional; details: 4T1, light or radiation study
MCF7 = assay: Phototoxicity against human MCF7 cells assessed as cell viability at 0.5 uM preincubated for 4 hrs followed by 0.5 to 2 J/cm2 light irradiation and measured after 24 hrs by MTT assay; type: functional, cell-based
[4] = Dark toxicity against mouse 4T1 cells assessed as cell viability at 0.5 uM after 24 hrs by MTT assay; type: cell-based; details: 4t1, 24 h
[5] = Dark toxicity against human MCF7 cells assessed as cell viability at 0.5 uM after 24 hrs by MTT assay; type: cell-based; details: mcf7, 24 h
4T1 [6] = assay: Antitumor activity against mouse 4T1 cells xenografted in BALB/c mouse assessed as inhibition of tumor volume at 1 mg/kg, iv pretreated for 24 hrs followed by 50 J/cm2 light irradiation and measured at day 22 post dose relative to control; type: functional; details: 4T1, light or radiation study
[7] = Selectivity index, ratio of dark toxicity against human MDA-MB-231 cells at 0.5 uM to phototoxicity against human MDA-MB-231 cells at 0.5 uM; type: cell-based; details: read-out: Selectivity Index
[8] = Drug uptake in human MDA-MB-231 cells at 5 uM by flow cytometric analysis; type: ADME, cell-based; details: mda-mb-231, 5 µM, TDE = time-dependent effect
[9] = Drug uptake in kidney of BALB/c mouse xenografted with mouse 4T1 cells at 10 mg/kg, iv measured at 12 hrs post injection by IVIS spectrum imaging; type: ADME, organism-based; details: in vivo
[10] = Drug uptake in mitochondria of human MDA-MB-231 cells at 10 uM after 4 hrs by Mito tracker green-based confocal laser scanning microscopic analysis; type: ADME; details: mda-mb-231, 4 h
[11] = Drug uptake in lysosome of human MDA-MB-231 cells at 10 uM after 4 hrs by Lyso tracker green-based confocal laser scanning microscopic analysis; type: ADME, subcellular; details: mda-mb-231, 4 h
[12] = Drug uptake in endoplasmic reticulum of human MDA-MB-231 cells at 10 uM after 4 hrs by ER tracker green-based confocal laser scanning microscopic analysis; type: ADME, subcellular; details: mda-mb-231, 4 h
MDA-MB-231 [13] = assay: Induction of ROS generation in human MDA-MB-231 cells incubated with DCF-DA probe for 30 mins by flow cytometric analysis (reference value: 2.1%); type: cell-based; details: mda-mb-231, 0.5 h
MDA-MB-231 [14] = assay: Induction of ROS generation in human MDA-MB-231 cells incubated with DCF-DA probe for 30 mins followed by 2 J/cm2 light irradiation and measured after 1 hr by flow cytometric analysis (reference value: 2.1%); type: functional
[15] = Drug uptake in tumor of BALB/c mouse xenografted with mouse 4T1 cells at 10 mg/kg, iv measured up to 3 to 24 hrs post injection by fluorescence assay; type: ADME, organism-based, Neoplasm; details: in vivo
MDA-MB-231 [16] = assay: Induction of apoptosis in human MDA-MB-231 cells assessed as early apoptotic cells after 24 hrs by Annexin-V FITC/propidium iodide staining based flow cytometric analysis (reference value: 1.22%); type: cell-based; details: mda-mb-231, 24 h
MDA-MB-231 [17] = assay: Induction of apoptosis in human MDA-MB-231 cells assessed as necrotic cells after 24 hrs by Annexin-V FITC/propidium iodide staining based flow cytometric analysis (reference value: 4.24%); type: cell-based; details: mda-mb-231, 24 h
MDA-MB-231 [18] = assay: Induction of apoptosis in human MDA-MB-231 cells assessed as early apoptotic cells after 24 hrs upon light irradiation by Annexin-V FITC/propidium iodide staining based flow cytometric analysis (reference value: 1.22%); type: functional
MDA-MB-231 [19] = assay: Induction of apoptosis in human MDA-MB-231 cells assessed as necrotic cells after 24 hrs upon light irradiation by Annexin-V FITC/propidium iodide staining based flow cytometric analysis (reference value: 4.24%); type: functional
4T1 [20] = assay: Antitumor activity against mouse 4T1 cells xenografted in BALB/c mouse at 4 mg/kg, iv preincubated for 24 hrs and measured at day 22 post dose; type: functional, organism-based
4T1 [21] = assay: Antitumor activity against mouse 4T1 cells xenografted in BALB/c mouse assessed as induction of tissue destruction with large spaces at 4 mg/kg, iv pretreated for 24 hrs followed by 50 J/cm2 light irradiation by hematoxylin and eosin staining based light microscopic analysis; type: functional, organism-based
Mus musculus [22] = assay: Toxicity in BALB/c mouse xenografted with mouse 4T1 cells assessed as effect on body weight at 4 mg/kg, iv measured at day 22 post last dose; type: organism-based; details: in vivo
Mus musculus [23] = assay: Toxicity in BALB/c mouse xenografted with mouse 4T1 cells assessed as effect on body weight at 1 mg/kg, iv pre-tretaed for 24 hrs followed by 50 J/cm2 light irradiation and measured at day 22 post dose; type: organism-based; details: in vivo
Mus musculus [24] = assay: Hepatotoxicity in BALB/c mouse xenografted with mouse 4T1 cells assessed as pathological changes in liver at 4 mg/kg, iv measured at day 22 post dose by hematoxylin and eosin staining based light microscopic analysis; type: toxicity, organism-based; details: in vivo
Mus musculus [25] = assay: Nephrotoxicity in BALB/c mouse xenografted with mouse 4T1 cells assessed as pathological changes in kidney at 4 mg/kg, iv measured at day 22 post dose by hematoxylin and eosin staining based light microscopic analysis; type: toxicity, organism-based; details: in vivo
MDA-MB-231 [26] = assay: Induction of ROS generation in human MDA-MB-231 cells incubated with DCF-DA probe for 30 mins by flow cytometric analysis (reference value: 5.81%); type: cell-based; details: mda-mb-231, 0.5 h
MDA-MB-231 [27] = assay: Induction of ROS generation in human MDA-MB-231 cells incubated with DCF-DA probe for 30 mins followed by 2 J/cm2 light irradiation and measured after 1 hr by flow cytometric analysis (reference value: 5.81%); type: functional

Drug uptake [8] | Drug uptake [9] | Drug uptake [10] | Drug uptake [11] | Drug uptake [12] | Drug uptake [15] | SMILES | viability at 0.5 µM (4T1 [1]) [%] | viability at 0.5 µM (4T1 [2]) [%] | inhibition in vivo at 2 mg/kg (4T1 [3]) [%] | Activity (MCF7) | Activity [4] | Activity [5] | inhibition in vivo at 1 mg/kg (4T1 [6]) [%] | selectivity ratio at 0.5 µM [7] | Activity (MDA-MB-231 [16]) [%] | Activity (MDA-MB-231 [17]) [%] | Activity (MDA-MB-231 [18]) [%] | Activity (MDA-MB-231 [19]) [%] | Activity (4T1 [21]) | Activity (Mus musculus [22]) | further results
Tde | Not Active | Active | Active | Active | Active | C=CC1=C(C)c2cc3[nH]c(cc4nc(cc5[nH]c(cc1n2)c(C)c5CCC(=O)[O-])C(CCC(=O)[O-])=C4C)c(C)c3C(C)OCCCCCC.[Na+].[Na+] (stereo unspecified) | 98 | 54.6 | 28 | Active | Non-Toxic | Non-Toxic | 15.4 | 59.6 | 4.02 | 0.4 | 7.17 | 11.12 | Active | Non-Toxic | Activity (MDA-MB-231 [13]): 2.21%; Activity (MDA-MB-231 [14]): 46.7%; Activity (4T1 [20]): inactive; Activity (Mus musculus [23]): Non-Toxic; Activity (Mus musculus [24]): Non-Toxic; Activity (Mus musculus [25]): Non-Toxic
Tde | Not Active | Active | Active | Active | Active | C=Cc1c(C)c2cc3nc(cc4[nH]c(cc5nc(cc1[nH]2)C(C)=C5C(C)OCCCCCC)c(C)c4CCC(=O)[O-])C(CCC(=O)[O-])=C3C.[Na+].[Na+] (stereo unspecified) | 86.4 | 47.3 | 43 | Active | Non-Toxic | Non-Toxic | 27.8 | 161 | 3.72 | 0.58 | 3.82 | 10.12 | Active | Non-Toxic | Activity (MDA-MB-231 [26]): 6.34%; Activity (MDA-MB-231 [27]): 87.84%; Activity (Mus musculus [23]): Non-Toxic; Activity (Mus musculus [24]): Non-Toxic; Activity (Mus musculus [25]): Non-Toxic
